These results are taken from US20250058024A1, “INJECTABLE TOUGH AND VISCOELASTIC BTA HYDROGEL” (UNIVERSITEIT MAASTRICHT, priority 2021, published 2025).

Data set [1] in a line: Storage and handling stability of activated ester synthons. It counts as physicochemical. To be noted: for stability on handling in the lab: open handling in the lab, humid environment, 1H NMR. The text has this: With the knowledge of proton chemical shift and peak splitting pattern of products, we were able to analyse the crude reaction mixtures and quickly determine the relative amount of the products in the reaction mixture. Molecule 1 produced a 57% yield of 5 (monosubstituted) when treated with 1.0 equiv nucleophile. The desymmetrization of 2 behaved similarly, and after separation and characterization the crude reaction mixture produced a 38% yield of 6 (monosubstituted derivative). […] When the same reaction was run for two equivalents of hexylamine, 1 produced 7 (disubstituted) in 48% yield and 2 produced 8 in 54% yield. […] With promising results, we then turned to desymmetrization of the penta-fluorophenol synthon, 3. […] After ^1H NMR analysis, we were able to determine the ratio of substituted derivatives in the crude reaction mixture (a similar pattern of doublet/triplets and singlets was observed as in the desymmetrization of 1). […] Both desymmetrization reactions yielded higher than statisctical yields and the products were able to be readily isolated via column chromatography. When developing a reactive synthon for desymmetrization, stability and scalability are also important factors to consider. […] Purification of 1 and 2 required a large volume of solvents owing to limited solubility (100s of mL for 10s of mg), while 3 offered a short one-step work up with good solubility.
Due to its ease of synthesis, stability, desymmetrization, and purification, 3 was determined to be the best candidate to work with moving forward. […] Furthermore, the stability of the F5Ph esters on 3 also offers easy separation of desymmetrized intermediates using flash column chromatography.
In order to test the applicability of the reaction methodology to different amine based neuclopehiles/side-arms, we attempted a few different amines. […] (Scheme 3).

The conditions of data set [2]: cited from earlier work.
Where [3] appears, read: under an inert (and dry) atmosphere.

As to `O=C(Oc1cccc([N+](=O)[O-])c1)c1cc(C(=O)Oc2cccc([N+](=O)[O-])c2)cc(C(=O)Oc2cccc([N+](=O)[O-])c2)c1` [compound 1], the stability on storage entry in data set [1] (in a desiccator) was “stable in a desiccator when stored for a year”. The “stability on handling in the lab” value in data set [1] is on record as “started to hydrolyze”.

For the molecule `O=C1CCC(=O)N1O` [N-hydroxy succinimide], in data set [2], the pka is given as 6.0.

Consider `O=[N+]([O-])c1cccc(O)c1` [3-nitrophenol], for which the pka in data set [2] is reported as 8.36.

For the molecule `CCCCCCNC(=O)c1cc(C(=O)NCCCCCC)cc(C(=O)Oc2c(F)c(F)c(F)c(F)c2F)c1` [compound 10], the stability on storage entry in data set [1] (setting [3]) is listed as “stable over months”.

Regarding `O=C(Oc1c(F)c(F)c(F)c(F)c1F)c1cc(C(=O)Oc2c(F)c(F)c(F)c(F)c2F)cc(C(=O)Oc2c(F)c(F)c(F)c(F)c2F)c1` [compound 3, 1,3,5-benzenetricarbonylpentafluoroester], the “stability on handling in the lab” value in data set [1] was “stable for more than two years”. Further, the stability on storage entry in data set [1] (setting [3]) is reported as “stable over years”.

In the case of `Oc1c(F)c(F)c(F)c(F)c1F` [2,3,4,5,6-pentafluorophenol], the pka in data set [2] is 5.4.

Regarding `CCCCCCNC(=O)c1cc(C(=O)Oc2c(F)c(F)c(F)c(F)c2F)cc(C(=O)Oc2c(F)c(F)c(F)c(F)c2F)c1` [compound 9], the stability on storage entry in data set [1] (setting [3]) is “stable over months”.

As to `O=C(Oc1ccc([N+](=O)[O-])cc1)c1cc(C(=O)Oc2ccc([N+](=O)[O-])cc2)cc(C(=O)Oc2ccc([N+](=O)[O-])cc2)c1` [compound 2], the stability on storage entry in data set [1] (in a desiccator) is “stable in a desiccator when stored for a year”. Further, the “stability on handling in the lab” value in data set [1] is reported as “started to hydrolyze”.
